For assay [1], the system named is U937 human histiocytic leukemia cell line. Kind of assay: Inhibition of TSQ induced necroptosis in U937 cells (CellTitre-Glo). The note with it: Homo sapiens, U-937, TSQ cocktail (TNF, Smac mimetic, Q-VD-OPh), 48 hours, read-out: Inhibition of TSQ-induced necroptosis (IC50 cell-based assay). On the procedure:
Cellular Assay: Screening Compounds for Inhibition of TSQ Induced Necroptosis, 384 Well Plate Format.
(§1) • Cell Line ID: U937 human histiocytic leukemia cell line. • Cell Concentration (cells/well): Final cell density is 20000 cells per well. • Cell growth medium: HT-RPMI medium+7.4% Fetal Bovine Serum (FBS). Cells are cultured in Corning 150 cm^2 tissue culture flasks with vented caps at 37° C./5% CO2. • Incubation: Plates were incubated at 37° C./5% CO2 in a humidified incubator for 48 hours following addition of compounds and death stimuli (TSQ cocktail). • Compound concentration: 36 μM starting concentration, 1:3 dilution, 10 point • DMSO final concentration (% v/v): 0.3%. Compounds in TSQ Cocktail (T: TNF; S: Smac Mimetic; Q: Q-VD-OPh) and their Final Concentrations: • hTNF-Fc (100 ng/ml)—produced by standard procedures as shown in Bossen et al., J. Biol. Chem., 2006, 281(20), 13964-13971. • Compound A (500 nM) —Smac mimetic, Tetralogic and SYNthesis med chem • Q-VD-OPh (10 μM) —MP Biomedicals
(§2) The cellular assay was carried out according to the following steps: • 1. Each well was prepared by sequential addition of: • a. DMSO (control; columns 1-2 and 23-24) or compound in DMSO—addition was performed using acoustic transfer of nL volumes of stock compound to give final test concentrations of 36, 12, 4, 1.3, 0.44, 0.148, 0.049, 0.016, 0.005 and 0.002 μM. All wells were backfilled with DMSO to a final total volume in the well of 100 nL. • b. Following compound/DMSO addition in step (a), 40 μL of cell suspension (5×10^5 cells/mL) was added to provide a final cell concentration of 20,000 cells per well, and • c. Following cell addition in step (b), 10 μL of 5×TSQ cocktail (except to positive controls; columns 1 and 23) was added to each well. • 2. After 48 hours, plate was removed from the 37° C. incubator and equilibrated to room temperature for 45 minutes. • 3. 15 μL of room temperature CellTitre-Glo2™ (Promega™) was added to each well. • 4. Shook plates for 2 minutes (˜600 rpm) and incubated at room temperature for 15 minutes to allow signal to stabilise. • 5. Read luminescence readout on a plate reader.
Percent viability was calculated for each compound according to equation (2): […]
(§3) 10 point titration curves were fitted with the 4 parameter logistic nonlinear regression model and the IC50 reported reflect the inflection point of the curve for curve fitting.
(§4) • Assay involving the TSQ cocktail (T: TNF; S: Smac mimetic; Q: Q-VD-OPh): TSQ treatment ensures that cells specifically undergo necroptotic cell death. TNF activates the TNF receptor, Smac mimetic directs the signal away from proinflammatory signaling and toward the RIPK1/RIPK3-mediated cell death pathways, and Q-VD-OPh ensures that the apoptotic response is blocked leaving only the programmed necrosis response. The compounds' activity (solution in DMSO) tested in this TSQ-induced assay was evaluated by determining the number of viable cells in culture by measuring the amount of ATP present as measured by CelltiterGlo. • Counter screen: In parallel, all compounds were tested for their ability to affect cell viability. The same U937 cells were treated with compound in DMSO without the TSQ cocktail. This counter screen enabled evaluation of off-target effects. In this case, cell viability was measured by CelltiterGlo.

The subject of the next assay is U937 cells. Kind of assay: Counter screen: U937 cell viability without TSQ cocktail (off-target effect). The arrangement: species or system human. The conditions noted are these: Homo sapiens, U-937, compound without TSQ cocktail, read-out: Off-target effect (IC50 cell-based assay). On the procedure:
as §1, §2, §3, §4

For the next assay, the target named is human MLKL (full length) (Homo sapiens (Human), UniProt Q8NB16). Briefly: KINOMEscan binding assay, human MLKL (full length). The conditions noted are these: equilibrium dissociation constant. On the procedure:
(§5) Binding affinity of the test compounds for human MLKL (full length), mouse MLKL (full length), human RIPK1 and human RIPK3 was determined using the KINOMEscan™ technology developed by DiscoverX (USA; http://www.discoverx.com). The assay was conducted according to manufacturer instructions.
(§6) Kinase assays. For most assays, kinase-tagged T7 phage strains were grown in parallel in 24-well blocks in an E. coli host derived from the BL21 strain. E. coli were grown to log-phase and infected with T7 phage from a frozen stock (multiplicity of infection=0.4) and incubated with shaking at 32° C. until lysis (90-150 minutes). The lysates were centrifuged (6,000×g) and filtered (0.2 μm) to remove cell debris. The remaining kinases were produced in HEK-293 cells and subsequently tagged with DNA for qPCR detection. […] The liganded beads were blocked with excess biotin and washed with blocking buffer (SeaBlock (Pierce), 1% BSA, 0.05% Tween 20, 1 mM DTT) to remove unbound ligand and to reduce non-specific phage binding. […] All reactions were performed in polypropylene 384-well plates in a final volume of 20 μL. […] The kinase concentration in the eluates was measured by qPCR.
(§7) An 11-point 3-fold serial dilution of each test compound was prepared in 100% DMSO at 100× final test concentration and subsequently diluted to 1× in the assay (final DMSO concentration=1%). Most Kos were determined using a compound top concentration=30,000 nM.
(§8) KD for each test compound was calculated with a standard dose-response curve using the Hill equation (equation (1)): […]
(§9) The Hill Slope was set to −1.
(§10) Curves were fitted using a non-linear least square fit with the Levenberg-Marquardt algorithm.

The next assay concerns the target human RIPK1 (Homo sapiens (Human), UniProt Q13546). Briefly: KINOMEscan binding assay, human RIPK1. The note with it: equilibrium dissociation constant. On the procedure:
as §5, §6, §7, §8, §9, §10

A further assay concerns the target human RIPK3 (Homo sapiens (Human), UniProt Q9Y572). Kind of assay: KINOMEscan binding assay, human RIPK3. The conditions noted are these: equilibrium dissociation constant. On the procedure:
as §5, §6, §7, §8, §9, §10

Chain of human RIPK3 (Q9Y572 whole entry): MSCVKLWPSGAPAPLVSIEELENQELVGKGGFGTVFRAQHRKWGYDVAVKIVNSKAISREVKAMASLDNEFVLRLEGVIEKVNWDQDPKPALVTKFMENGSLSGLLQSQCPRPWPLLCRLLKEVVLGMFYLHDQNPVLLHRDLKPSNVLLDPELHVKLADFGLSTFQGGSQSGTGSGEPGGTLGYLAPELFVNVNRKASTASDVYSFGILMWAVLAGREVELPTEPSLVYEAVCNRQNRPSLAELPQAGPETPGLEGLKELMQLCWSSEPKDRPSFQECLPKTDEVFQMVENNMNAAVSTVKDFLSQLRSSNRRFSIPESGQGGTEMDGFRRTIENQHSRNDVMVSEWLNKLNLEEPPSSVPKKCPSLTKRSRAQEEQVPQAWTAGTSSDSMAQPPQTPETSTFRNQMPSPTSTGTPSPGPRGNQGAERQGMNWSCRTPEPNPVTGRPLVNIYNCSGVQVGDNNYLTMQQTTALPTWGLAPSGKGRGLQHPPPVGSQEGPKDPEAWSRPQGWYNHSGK
Chain of human RIPK1 (Q13546 whole entry): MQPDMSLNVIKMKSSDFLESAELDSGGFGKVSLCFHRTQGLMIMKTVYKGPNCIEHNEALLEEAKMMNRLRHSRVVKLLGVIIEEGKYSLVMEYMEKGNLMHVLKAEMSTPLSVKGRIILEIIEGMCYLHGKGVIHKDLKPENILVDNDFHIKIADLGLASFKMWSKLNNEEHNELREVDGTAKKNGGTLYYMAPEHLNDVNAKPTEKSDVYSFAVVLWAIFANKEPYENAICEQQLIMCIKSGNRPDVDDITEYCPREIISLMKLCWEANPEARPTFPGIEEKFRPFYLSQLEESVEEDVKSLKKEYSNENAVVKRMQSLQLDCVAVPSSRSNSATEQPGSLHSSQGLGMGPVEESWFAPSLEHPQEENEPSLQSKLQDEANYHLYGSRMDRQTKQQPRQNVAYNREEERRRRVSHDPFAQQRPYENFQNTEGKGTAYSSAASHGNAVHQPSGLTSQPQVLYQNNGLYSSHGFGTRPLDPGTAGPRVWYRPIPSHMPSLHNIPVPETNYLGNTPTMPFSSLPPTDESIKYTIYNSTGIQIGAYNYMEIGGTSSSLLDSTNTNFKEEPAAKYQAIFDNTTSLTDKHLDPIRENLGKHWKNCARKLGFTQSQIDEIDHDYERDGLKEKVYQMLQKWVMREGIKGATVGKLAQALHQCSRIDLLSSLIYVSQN
Chain of human MLKL (full length) (Q8NB16 whole entry): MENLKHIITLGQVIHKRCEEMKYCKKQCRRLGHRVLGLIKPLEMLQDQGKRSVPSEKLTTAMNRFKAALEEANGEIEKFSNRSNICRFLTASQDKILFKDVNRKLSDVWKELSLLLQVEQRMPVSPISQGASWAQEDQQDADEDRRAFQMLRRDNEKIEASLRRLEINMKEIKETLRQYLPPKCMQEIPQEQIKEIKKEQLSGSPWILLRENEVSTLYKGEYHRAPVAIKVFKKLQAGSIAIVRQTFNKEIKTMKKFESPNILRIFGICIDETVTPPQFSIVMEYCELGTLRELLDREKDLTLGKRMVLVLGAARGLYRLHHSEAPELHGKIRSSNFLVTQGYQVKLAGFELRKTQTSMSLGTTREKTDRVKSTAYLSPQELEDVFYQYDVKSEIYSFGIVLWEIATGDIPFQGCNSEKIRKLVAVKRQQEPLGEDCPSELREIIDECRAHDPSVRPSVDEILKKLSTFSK

For the compound `COc1ccc([C@H](C)Oc2cc(-c3nn(C)c4c(-c5cnn(C6CCOCC6)c5)cnc(N)c34)ccc2NS(=O)(=O)C(F)F)cc1` [Compound 129, (S)-N-(4-(4-amino-1-methyl-7-(1-(tetrahydro-2H-pyran-4-yl)-1H-pyrazol-4-yl)-1H-pyrazolo[4,3-c]pyridin-3-yl)-2-(1-(4-methoxyphenyl)ethoxy)phenyl)-1,1-difluoromethanesulfonamide], the concentration for half-maximal inhibition (IC50) in assay [1] was 0.01 to 1 µM; in the assay with U937 cells, over 10 µM.

Consider `Cn1nc(-c2ccc(NS(=O)(=O)C(F)F)c(OCc3ccc(Cl)cn3)c2)c2c(N)ncc(-c3cnn(C4CCOCC4)c3)c21` [Compound 136, N-(4-(4-amino-1-methyl-7-(1-(tetrahydro-2H-pyran-4-yl)-1H-pyrazol-4-yl)-1H-pyrazolo[4,3-c]pyridin-3-yl)-2-((5-chloropyridin-2-yl)methoxy)phenyl)-1,1-difluoromethanesulfonamide], for which the IC50 in assay [1] was 0.01 to 1 µM; with U937 cells, over 10 µM.

With `CCS(=O)(=O)Nc1ccc(-c2cccc3[nH]nc(N)c23)cc1OCc1ccc(F)cc1` [Compound 62, N-(4-(3-Amino-1H-indazol-4-yl)-2-((4-fluorophenyl)methoxy)phenyl)ethane-1-sulfonamide], the IC50 is 1 to 10 µM in assay [1] and over 10 µM in the assay with U937 cells.

For the compound `C[C@H](Oc1cc(-c2nn(C)c3c(-c4cnn(C5CCC(C(=O)O)CC5)c4)cnc(N)c23)ccc1NS(=O)(=O)C(F)F)c1ccc(F)cc1` (stereo partly drawn) [Compound 173, 4-(4-{4-amino-3-[4-(difluoromethanesulfonamido)-3-[(1S)-1-(4-fluorophenyl)ethoxy]phenyl]-1-methyl-1H-pyrazolo[4,3-c]pyridin-7-yl}-1H-pyrazol-1-yl)cyclohexane-1-carboxylic acid], the results for the IC50 (in assay [1]; in the assay on U937 cells) were 1 to 10 µM and over 10 µM, respectively.

On to `Cc1cnccc1-c1cnc(N)c2c(-c3ccc(NS(=O)(=O)C(F)F)c(O[C@@H](C)c4ccc(F)cc4)c3)nn(C)c12` [Compound 32, (S)-N-(4-(4-amino-1-methyl-7-(3-methylpyridin-4-yl)-1H-pyrazolo[4,3-c]pyridin-3-yl)-2-(1-(4-fluorophenyl)ethoxy)phenyl)-1,1-difluoromethanesulfonamide], for which the IC50 in assay [1] is 1 to 10 µM; in the assay with U937 cells it was over 10 µM.

As for `C[C@H](Oc1cc(-c2nn(C)c3c(-c4ccnc(N(C)C)c4)cnc(N)c23)ccc1NS(=O)(=O)C(F)F)c1ccc(F)cc1` [Compound 49, (S)-N-(4-(4-amino-7-(2-(dimethylamino)pyridin-4-yl)-1-methyl-1H-pyrazolo[4,3-c]pyridin-3-yl)-2-(1-(4-fluorophenyl)ethoxy)phenyl)-1,1-difluoromethanesulfonamide], the Kd was 0.001 to 0.1 µM on human MLKL (full length), over 10 µM at human RIPK1 and over 10 µM at human RIPK3.

For `C[C@H](Oc1cc(-c2nn(C)c3c(-c4cnn(C5CCOCC5)c4)cnc(N)c23)ccc1NS(=O)(=O)Cc1ccccc1)c1ccc(F)cc1` [Compound 125, (S)-N-(4-(4-amino-1-methyl-7-(1-(tetrahydro-2H-pyran-4-yl)-1H-pyrazol-4-yl)-1H-pyrazolo[4,3-c]pyridin-3-yl)-2-(1-(4-fluorophenyl)ethoxy)phenyl)-1-phenylmethanesulfonamide], the Kd on human MLKL (full length) is 0.001 to 0.1 µM; at human RIPK1, over 10 µM; at human RIPK3, over 10 µM.

Consider `Nc1n[nH]c2nccc(-c3ccc(NS(=O)(=O)CC(F)(F)F)c(OCc4ccc(F)cc4)c3)c12` [Compound 67, N-(4-(3-Amino-1H-pyrazolo[3,4-b]pyridin-4-yl)-2-((4-fluorophenyl)methoxy)phenyl)-2,2,2-trifluoroethane-1-sulfonamide], for which the Kd was under 0.001 µM on human MLKL (full length), over 10 µM at human RIPK1 and over 10 µM at human RIPK3.

Regarding `Cn1nc(-c2ccc(NS(=O)(=O)C(F)F)c(OCc3ccc(F)cc3)c2)c2c(N)ncc(-c3ccncc3)c21` [Compound 14, N-(4-(4-amino-1-methyl-7-(pyridin-4-yl)-1H-pyrazolo[4,3-c]pyridin-3-yl)-2-((4-fluorobenzyl)oxy)phenyl)-1,1-difluoromethanesulfonamide], the IC50 is 1 to 10 µM in assay [1] and over 10 µM in the assay on U937 cells.

With `C[C@H](Oc1cc(-c2nn(C)c3ccnc(N)c23)ccc1NS(=O)(=O)C(F)F)c1ccc(F)cc1` [Compound 17, N-(4-{4-amino-1-methyl-1Hpyrazolo[4,3-c]pyridin-3-yl}-2-[(1S)-1-(4-fluorophenyl)ethoxy]phenyl)-1,1-difluoromethanesulfonamide], the values for the Kd on human MLKL (full length), at human RIPK1 and on human RIPK3 were under 0.001 µM, over 10 µM and over 10 µM, respectively.

Turning to `C[C@H](Oc1cc(-c2nn(C)c3c(Cc4ccccc4)cnc(N)c23)ccc1NS(=O)(=O)C(F)F)c1ccc(F)cc1` [Compound 34, (S)-N-(4-(4-amino-7-benzyl-1-methyl-1H-pyrazolo[4,3-c]pyridin-3-yl)-2-(1-(4-fluorophenyl)ethoxy)phenyl)-1,1-difluoromethanesulfonamide], the equilibrium dissociation constant (Kd) is 0.001 to 0.1 µM at human MLKL (full length), over 10 µM at human RIPK1 and over 10 µM at human RIPK3.

For the compound `CCS(=O)(=O)Nc1ccc(-c2nn(C)c3c(NC(C)=O)cnc(N)c23)cc1OCc1ccc(F)cc1` [Compound 2, N-(4-amino-3-(4-(ethylsulfonamido)-3-((4-fluorobenzyl)oxy)phenyl)-1-methyl-1H-pyrazolo[4,3-c]pyridin-7-yl)acetamide], the Kd on human MLKL (full length) is 0.001 to 0.1 µM; at human RIPK1 it was over 10 µM; on human RIPK3 it was over 10 µM.

With `Cn1nc(-c2ccc(NS(=O)(=O)C(F)F)c(OCc3ncco3)c2)c2c(N)ncc(-c3cnn(C4CCOCC4)c3)c21` [Compound 151, N-(4-(4-amino-1-methyl-7-(1-(tetrahydro-2H-pyran-4-yl)-1H-pyrazol-4-yl)-1H-pyrazolo[4,3-c]pyridin-3-yl)-2-(oxazol-2-ylmethoxy)phenyl)-1,1-difluoromethanesulfonamide], the Kd at human MLKL (full length) was under 0.001 µM; on human RIPK1, over 10 µM; at human RIPK3, over 10 µM.

As for `C[C@H](Oc1cc(-c2nn(C)c3c(-c4cnn5c4CNCC5)cnc(N)c23)ccc1NS(=O)(=O)C(F)F)c1ccc(F)cc1` [Compound 90, (S)-N-(4-(4-amino-1-methyl-7-(4,5,6,7-tetrahydropyrazolo[1,5-a]pyrazin-3-yl)-1H-pyrazolo[4,3-c]pyridin-3-yl)-2-(1-(4-fluorophenyl)ethoxy)phenyl)-1,1-difluoromethanesulfonamide], the Kd at human MLKL (full length) is 0.001 to 0.1 µM; at human RIPK1 it was over 10 µM; on human RIPK3, over 10 µM.
